Reference: patent US20170000133A1, “BENZOXABOROLE FUNGICIDES” (SYNGENTA PARTICIPATIONS AG, priority 2013, published 2017)

What was measured:
Plasmopara viticola = assay: whole plant or invertebrate; assay type: in vivo; conditions: foliar, read-out: disease control
[1] = system: Puccinia recondita f. sp. tritici; assay: Puccinia recondita f. sp. tritici / wheat / leaf disc curative (brown rust); assay type: in vivo; conditions: foliar, 192 h, wheat leaf segments, applied one day after inoculation, assessed 8 dpi, read-out: disease control
Description: 4. Puccinia recondita f. sp. tritici/Wheat/Leaf Disc Curative (Brown Rust) Wheat leaf segments are placed on agar in multiwell plates (24-well format). The leaf disks are then inoculated with a spore suspension of the fungus. One day after inoculation the test solution is applied. After appropriate incubation the activity of a compound is assessed 8 dpi (days after inoculation) as curative fungicidal activity. Dose range: 200-22 ppm.

Pythium ultimum = Pythium ultimum / liquid culture (seedling damping off); assay type: cell-based; conditions: Globisporangium ultimum; 200 ppm; potato dextrose broth, 24° C., 2-3 days after application; read-out: disease control (inhibition of growth determined photometrically)
[2] = system: Glomerella lagenarium (Colletotrichum lagenarium); assay: Glomerella lagenarium (Colletotrichum lagenarium) / liquid culture (anthracnose); assay type: cell-based; conditions: Colletotrichum orbiculare, PDB potato dextrose broth, 24° C., 3-4 days after application, read-out: disease control (inhibition of growth measured photometrically)
Summary of the method: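 Compound was applied at 200 ppm from DMSO solution, then potato dextrose broth carrying cryostored fungal spores was added. Growth inhibition was measured by photometry after 3-4 days of incubation at 24° C.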

[3] = system: Mycosphaerella arachidis (Cercospora arachidicola); assay: Mycosphaerella arachidis (Cercospora arachidicola) / liquid culture (early leaf spot); assay type: cell-based; conditions: PDB potato dextrose broth, 24° C., 4-5 days after application, read-out: disease control (inhibition of growth determined photometrically)
Summary of the method: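 Test compound, applied at 200 ppm from DMSO solution, was combined with spore-containing potato dextrose broth. Photometric growth inhibition was scored after 4-5 days at 24° C.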

[4] = system: Thanatephorus cucumeris (Rhizoctonia solani); assay: Thanatephorus cucumeris (Rhizoctonia solani) / liquid culture (foot rot, damping-off); assay type: cell-based; conditions: PDB potato dextrose broth, 24° C., 3-4 days after application, read-out: disease control (inhibition of growth determined photometrically)
Summary of the method: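 Photometric growth-inhibition readout taken 3-4 days after application, with cultures incubated at 24 °C. Test compound was applied at 200 ppm from DMSO solution to R. solani mycelial fragments in PDB.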

[5] = system: Mycosphaerella graminicola (Septoria tritici); assay: Mycosphaerella graminicola (Septoria tritici) / liquid culture (Septoria blotch); assay type: cell-based; conditions: Zymoseptoria tritici, PDB potato dextrose broth, 24° C., 4-5 days after application, read-out: disease control (inhibition of growth determined photometrically)
Summary of the method: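 Growth inhibition was read photometrically 4-5 days after application, following incubation at 24° C of fungal conidia in potato dextrose broth over test compound (200 ppm, from DMSO solution) in microtiter plates.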

Gaeumannomyces graminis = Gaeumannomyces graminis / liquid culture (take-all of cereals); assay type: cell-based; conditions: PDB potato dextrose broth, 24° C., 4-5 days after application, read-out: disease control (inhibition of growth determined photometrically)
Summary of the method: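 Growth inhibition measured photometrically 4–5 days post-application, following incubation at 24 °C. Test compound, applied from DMSO at 200 ppm, mixed with fungal mycelial fragments in potato dextrose broth.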

[6] = system: Monographella nivalis (Microdochium nivale); assay: Monographella nivalis (Microdochium nivale) / liquid culture (foot rot cereals); assay type: cell-based; conditions: PDB potato dextrose broth, 24° C., 4-5 days after application, read-out: disease control (inhibition of growth determined photometrically)
Fusarium culmorum = assay: microbe, parasite or virus in culture; assay type: cell-based; conditions: read-out: disease control (inhibition of growth determined visually)
Sclerotinia sclerotiorum = Sclerotinia sclerotiorum / liquid culture (cottony rot); assay type: cell-based; conditions: PDB potato dextrose broth, 24° C., 3-4 days after application, read-out: disease control (inhibition of growth determined visually)
Description: 18. Sclerotinia sclerotiorum/Liquid Culture (Cottony Rot): Mycelia fragments of a newly grown liquid culture of the fungus were directly mixed into nutrient broth (PDB potato dextrose broth). After placing a (DMSO) solution of the test compounds into a microtiter plate (96-well format) the nutrient broth containing the fungal material was added. The test plates were incubated at 24° C. and the inhibition of growth was determined visually 3-4 days after application.

[7] = system: Botryotinia fuckeliana (Botrytis cinerea); assay: Botryotinia fuckeliana (Botrytis cinerea) / liquid culture (gray mould); assay type: cell-based; conditions: Vogels broth, 24° C., 3-4 days after application, read-out: disease control (inhibition of growth determined photometrically)
Description: 10. Botryotinia fuckeliana (Botrytis cinerea)/Liquid Culture (Gray Mould): Conidia of the fungus from cryogenic storage were directly mixed into nutrient broth (Vogels broth). After placing a DMSO solution of test compound into a 96-well microtiter plate at an application rate of 200 ppm, the nutrient broth containing the fungal spores was added. The test plates were incubated at 24° C. and the inhibition of growth was determined photometrically 3-4 days after application.

[8] = system: Puccinia recondita f. sp. tritici; assay: Puccinia recondita f. sp. tritici / wheat / leaf disc preventative (brown rust); assay type: in vivo; conditions: foliar, wheat leaf segments cv Kanzler, inoculated 1 day after application, assessed 7-9 days after application, read-out: disease control
Excerpt: 3. Puccinia recondita f. sp. tritici/Wheat/Leaf Disc Preventative (Brown Rust): Wheat leaf segments cultivated variety (cv) Kanzler were placed on agar in 24-well plates and sprayed with formulated test compound diluted in water at an application rate of 200 ppm. The leaf disks were inoculated with a spore suspension of the fungus 1 day after application.

| SMILES | pest or weed control at 200 ppm (Plasmopara viticola) [%] | pest or weed control at 200 ppm [1] [%] | inhibition at 200 ppm (Pythium ultimum) [%] | inhibition at 200 ppm [2] [%] | inhibition at 200 ppm [3] [%] | inhibition at 200 ppm [4] [%] | inhibition at 200 ppm [5] [%] | inhibition at 200 ppm (Gaeumannomyces graminis) [%] | inhibition at 200 ppm [6] [%] | inhibition at 200 ppm (Fusarium culmorum) [%] | inhibition at 200 ppm (Sclerotinia sclerotiorum) [%] | melting point [°C] | inhibition at 200 ppm [7] [%] | pest or weed control at 200 ppm [8] [%] |
| --- | --- | --- | --- | --- | --- | --- | --- | --- | --- | --- | --- | --- | --- | --- |
| C=CCC(OC(=O)c1ccc2c(c1)B(O)OC2)C(=O)OC (stereo not drawn) [Compound 348] | ≥ 80 | ≥ 80 | ≥ 80 | ≥ 80 | ≥ 80 | ≥ 80 |  |  |  |  |  |  |  |  |
| COC(COC(=O)c1cc2c(cc1Cl)COB2O)OC [Compound 449] |  |  | ≥ 80 | ≥ 80 | ≥ 80 |  | ≥ 80 | ≥ 80 | ≥ 80 | ≥ 80 | ≥ 80 | 122 to 124 |  |  |
| COC(=O)C#CCOC(=O)c1ccc2c(c1)B(O)OC2 [Compound 361] | ≥ 80 |  | ≥ 80 | ≥ 80 | ≥ 80 | ≥ 80 | ≥ 80 | ≥ 80 | ≥ 80 | ≥ 80 | ≥ 80 |  | ≥ 80 |  |
| O=C(OCc1cccc(F)c1)c1ccc2c(c1)B(O)OC2 [Compound 375] |  |  | ≥ 80 | ≥ 80 | ≥ 80 | ≥ 80 | ≥ 80 | ≥ 80 | ≥ 80 | ≥ 80 | ≥ 80 | 125 to 127 | ≥ 80 |  |
| C=C(C)COC(=O)c1cc2c(cc1F)COB2O [Compound 402] |  | ≥ 80 | ≥ 80 |  | ≥ 80 | ≥ 80 | ≥ 80 | ≥ 80 | ≥ 80 |  |  |  |  |  |
| COC(=O)COC(=O)c1ccc2c(c1)B(O)OC2 [Compound 356] | ≥ 80 | ≥ 80 | ≥ 80 | ≥ 80 | ≥ 80 | ≥ 80 |  | ≥ 80 | ≥ 80 |  |  |  |  | ≥ 80 |
| C#CCCOC(=O)c1cc2c(cc1F)COB2O [Compound 418] | ≥ 80 | ≥ 80 | ≥ 80 |  | ≥ 80 | ≥ 80 | ≥ 80 | ≥ 80 | ≥ 80 |  | ≥ 80 |  |  |  |
| C=CCOC(=O)c1cc2c(cc1Cl)COB2O [Compound 215] |  |  | ≥ 80 | ≥ 80 | ≥ 80 | ≥ 80 | ≥ 80 | ≥ 80 | ≥ 80 | ≥ 80 | ≥ 80 |  |  |  |
| C=CCC(OC(=O)c1cc2c(cc1F)COB2O)C(=O)OC (stereo not drawn) [Compound 410] | ≥ 80 |  | ≥ 80 |  |  | ≥ 80 |  | ≥ 80 | ≥ 80 |  | ≥ 80 |  |  |  |
| O=C(OCC(F)F)c1ccc2c(c1)B(O)OC2 [Compound 365] | ≥ 80 | ≥ 80 | ≥ 80 |  | ≥ 80 |  |  | ≥ 80 |  |  |  |  |  |  |
| C=CCCOC(=O)c1cc2c(cc1F)COB2O [Compound 389] |  |  | ≥ 80 | ≥ 80 | ≥ 80 | ≥ 80 | ≥ 80 | ≥ 80 | ≥ 80 | ≥ 80 | ≥ 80 | 107 to 109 |  |  |
| N#CCOC(=O)c1cc2c(cc1F)COB2O [Compound 401] | ≥ 80 | ≥ 80 | ≥ 80 |  |  |  |  |  |  |  |  |  |  |  |
| Cc1csc(NC(=O)c2cc3c(cc2Cl)COB3O)n1 [Compound 147] |  |  | ≥ 80 | ≥ 80 | ≥ 80 |  |  |  | ≥ 80 |  | ≥ 80 |  |  |  |
| O=C(OCC#Cc1ccccc1)c1ccc2c(c1)B(O)OC2 [Compound 359] | ≥ 80 |  | ≥ 80 |  | ≥ 80 | ≥ 80 | ≥ 80 | ≥ 80 | ≥ 80 | ≥ 80 | ≥ 80 |  | ≥ 80 |  |
| COC(=O)C(C)OC(=O)c1cc2c(cc1F)COB2O (stereo not drawn) [Compound 393] | ≥ 80 | ≥ 80 | ≥ 80 |  |  | ≥ 80 |  | ≥ 80 |  |  |  |  |  |  |
| C#CCCOC(=O)c1ccc2c(c1)B(O)OC2 [Compound 355] | ≥ 80 | ≥ 80 | ≥ 80 | ≥ 80 | ≥ 80 | ≥ 80 | ≥ 80 | ≥ 80 | ≥ 80 |  |  |  |  |  |
| CCC#CCOC(=O)c1cc2c(cc1F)COB2O [Compound 379] | ≥ 80 |  | ≥ 80 | ≥ 80 | ≥ 80 | ≥ 80 | ≥ 80 | ≥ 80 | ≥ 80 | ≥ 80 | ≥ 80 |  |  |  |
| O=C(OCC1CCC1)c1cc2c(cc1Cl)COB2O [Compound 225] |  |  | ≥ 80 | ≥ 80 | ≥ 80 | ≥ 80 | ≥ 80 | ≥ 80 | ≥ 80 |  |  | 115 to 117 | ≥ 80 | ≥ 80 |
| COC(=O)C#CCOC(=O)c1cc2c(cc1F)COB2O [Compound 424] | ≥ 80 |  | ≥ 80 | ≥ 80 | ≥ 80 | ≥ 80 | ≥ 80 | ≥ 80 | ≥ 80 | ≥ 80 | ≥ 80 | 112 to 114 | ≥ 80 |  |
| C=C(C)COC(=O)c1ccc2c(c1)B(O)OC2 [Compound 339] | ≥ 80 | ≥ 80 | ≥ 80 | ≥ 80 | ≥ 80 | ≥ 80 | ≥ 80 | ≥ 80 | ≥ 80 |  |  |  |  |  |
